Results reported in patent US12582667B2, “Compositions and methods to treat metastatic gastrointestinal cancer” (The Rockefeller University, priority 2019, dated 2026).
Blank lines part the entries; values can stand above or below the compound they belong to.

Assays:
LS174T cells [1] = experiment: 3-Mercaptopicolinic acid in vitro growth assay; assay type: cell-based, human; settings: 24-hour exposure to 1 mM 3 MPA in media, terminated on day 5
Method: 3-Mercaptopicolinic Acid In Vitro Growth Assay
LS174T cells were seeded in 6-well plates. On day 1, the media was replaced with either control media or media supplemented with 1 mM 3 MPA. On day 2, all the media was replaced with control media. The experiment was terminated on day 5.
2×10^4 LS174T cells were seeded in triplicate. On day 1, the media was replaced with either control media or media supplemented with 1 mM 3 MPA. On day 2, all the media was replaced with control media. The experiment was terminated on day 5.

CRC cells [2] = experiment: Liver colonization after portal circulation injection of 3-MPA pre-treated CRC cells; assay type: in vivo, mouse; settings: cells pre-treated in vitro for 24 hours, then portal circulation injection; p=0.01
Method: (§1) All animal work was conducted in accordance with a protocol approved by the Institutional Animal Care and Use Committee (IACUC) at The Rockefeller University and Memorial Sloan Kettering Cancer Center. […] For functional studies of PCK1, colorectal cancer cells (SW480 or LS174T) that had been stably transduced with a luciferase reporter (Ponomarev et al., 2004) were subjected to portal circulation injection in NSG mice; after two minutes, a splenectomy was performed. For functional and pharmacology studies of DHODH, colorectal cancer cells (Lvm3b) that had been stably transduced with a luciferase reporter were subjected to portal circulation injection in athymic nude mice; after two minutes, a splenectomy was performed. Mice were imaged weekly; experiments were terminated when the luciferase signal had saturated or the mice were too ill, whichever occurred first.
Due to the strong reduction in mCRC liver colonization observed upon PCK1 depletion, it was hypothesized that PCK1 inhibition may represent a potential therapeutic strategy for impairing CRC metastatic progression. In vivo proof-of-principle experiments were performed in two independent CRC cell lines with a PCK1-inhibitor, 3-mercaptopicolinic acid (3-MPA) (N. W. DiTullio, et al. Biochem J 138, 387-394 (1974)). […]

LS174T cells [3] = experiment: Subcutaneous tumor growth of 3-MPA pre-treated LS174T cells; assay type: in vivo, mouse; settings: pre-treatment of LS174T cells with 3-MPA
LS174T cells [4] = experiment: Oral gavage of 3-MPA, LS174T liver colonization model; assay type: in vivo, mouse; settings: oral gavage 200 mg/kg prior to cell injection and on day one
Method: as §1
Chow was removed from cages four hours prior to injection of LS174T cells. Gavage with either 3-MPA (200 mg/kg in aqueous solution) or placebo was performed one hour prior to the injection of LS174T cells. 1×10^6 LS174T cells were injected into the portal systemic circulation as described in the Animals section above. Chow was returned to cages after injection. On day 1, chow was removed from cages; 3-MPA or placebo was administered via gavage four hours post-chow removal. […]

Lvm3b cells [5] = settings: K. Bracht, et al. Br J Cancer 103, 340-346 (2010); cited from earlier work
CRC cells [6] = experiment: In vitro hypoxia cell growth assay with leflunomide; assay type: cell-based, human; settings: for impairment of proliferation, hypoxia versus normoxia: hypoxia compared with normoxia
Method: In Vitro Hypoxia Cell Growth Assays
Lvm3b cells or LS174T cells were grown under normoxia for 24 hours followed by incubation for 5 days under 0.5% oxygen and then counted using the Sceptor 2.0 automated Cell Counter (Millipore).
Dihydroorotate Dehydrogenase (DHODH) is a key enzyme in the metabolic pathway that […] dihydroorotate to orotate, which is ultimately converted to the pyrimidine nucleotides UTP and CTP. To further confirm that pyrimidine biosynthesis promotes CRC hypoxic growth, CRC growth upon DHODH inhibition was assessed.

Lvm3b cells [7] = experiment: Lvm3b liver metastatic colonization in athymic nude mice; assay type: in vivo, mouse
Method: FIGS. 3A and 3B are a set of diagrams showing the effects of the DHODH inhibitor in inhibiting liver metastatic colonization. […] The mice were imaged every week. Firefly luciferase bioluminescent images are shown (p<0.0001, Student's t-test).
as §1
Chow was removed from cages four hours prior to injection of LS174T cells. Gavage with either 3-MPA (200 mg/kg in aqueous solution) or placebo was performed one hour prior to the injection of LS174T cells. 1×10^6 LS174T cells were injected into the portal systemic circulation as described in the Animals section above. Chow was returned to cages after injection. On day 1, chow was removed from cages; 3-MPA or placebo was administered via gavage four hours post-chow removal. Chow was returned to cages four hours after drug administration. Mice were imaged bi-weekly. […] An equivalent volume of DMSO was intraperitoneally injected every day to the control cohort.
To directly test this, highly metastatic LVM3b CRC cells of DHODH were depleted.

[8] = test system: two distinct CRC populations; experiment: Primary tumor growth of CRC populations under leflunomide; assay type: in vivo; settings: leflunomide treatment
HS746T cells = experiment: HS746T subcutaneous tumor growth in NSG mice; assay type: in vivo, mouse; settings: uridine administration, HS746T tumor (FIG. 4C)
Method: MPK: mg/kg body weight of mouse. Tumor size was measured by a digital caliper, and tumor volume was calculated as volume=[…].
Cg-Prkdc^scid Il2rg^tm1Wjl/SzJ (Nod-Scid-Gamma; NSG) mice (n=4 per each cohort).

GAS HI tumor = experiment: GAS HI patient-derived tumor growth in athymic nude mice; assay type: in vivo, mouse; settings: uridine administration, patient-derived tumor (FIG. 5B; text says FIGS. 5A and 5B)
CRC cells [9] = experiment: Uridine rescue of hypoxic growth of PCK1 depleted CRC cells; assay type: cell-based, human; settings: uridine supplementation, hypoxia
Method: In Vitro Hypoxia Cell Growth Assays Lvm3b cells or LS174T cells were grown under normoxia for 24 hours followed by incubation for 5 days under 0.5% oxygen and then counted using the Sceptor 2.0 automated Cell Counter (Millipore). The above findings reveal that liver metastatic CRC cells enhance pyrimidine levels and that PCK1 drives pyrimidine nucleotide levels under hypoxia. […] To directly test this, whether the growth defect of PCK1 depletion upon hypoxia could be rescued by the pyrimidine nucleoside uridine was determined. […] The results reveal PCK1 induction to be a mechanism employed by CRC cells to enhance pyrimidine nucleotide levels under hypoxia to promote growth.

Solubility of β-GPA = assay type: physicochemical

Structure (SMILES): O=C(O)c1ncccc1S [3-MPA, 3-mercaptopicolinic acid]
cell growth in vitro (LS174T cells [1]): did not alter cell proliferation in vitro
cell growth in vitro (LS174T cells [1]; listed as 3 MPA): does not alter
mCRC liver colonization in vivo (CRC cells [2]): significantly reduced
subcutaneous tumor growth (LS174T cells [3]): did not, however, alter subcutaneous tumor growth
colorectal cancer liver colonization (LS174T cells [4]): decreased colorectal cancer liver colonization

Structure (SMILES): O=c1[nH]cc(F)c(=O)[nH]1 [5-FU, 5-fluorouracil]
resistance of cells to the drug (Lvm3b cells [5]): highly resistant

Structure (SMILES): Cc1oncc1C(=O)Nc1ccc(C(F)(F)F)cc1 [leflunomide]
CRC growth in the context of hypoxia (CRC cells [6]; hypoxia (0.5% oxygen)): significantly impaired
impairment of proliferation, hypoxia versus normoxia (CRC cells [6]): impaired proliferation significantly more in the context of hypoxia than under normoxia
impairment of proliferation, hypoxia versus normoxia (CRC cells [6]; listed as Leflunomide): more significant under hypoxia than normoxia
reduction in CRC liver metastatic colonization (Lvm3b cells [7]; 7.5 mg/kg body weight intraperitoneally every day, athymic nude mice, versus DMSO): ~90 fold
liver metastatic colonization of Lvm3b cells (luciferase bioluminescence) (Lvm3b cells [7]; 7.5 mg/kg from day 1, n=4, p<0.0001, Student's t-test): inhibited liver metastatic colonization
survival (Kaplan-Meier) (Lvm3b cells [7]; 7.5 mg/kg, versus control mice, p=0.006): significantly longer survival
primary tumor growth [8]: only modestly impacted

Structure (SMILES): O=c1ccn([C@@H]2O[C@H](CO)[C@@H](O)[C@H]2O)c(=O)[nH]1 [uridine]
rescue of leflunomide-impaired growth upon hypoxia (CRC cells [6]; uridine supplementation, hypoxia, leflunomide treatment): rescued
rescue of leflunomide-induced tumor growth reduction (HS746T cells): rescued
rescue of leflunomide induced tumor growth suppression (GAS HI tumor): rescued
rescue of hypoxic growth defect upon PCK1 depletion (CRC cells [9]): rescued the hypoxic growth defect

solubility in organic solvents (Solubility of β-GPA; organic solvents): low solubility
solubility (Solubility of β-GPA; water): > 50 mg/mL
Structure (SMILES): N=C(N)NCCC(=O)O [β-GPA, beta-guanidinopropionic acid]
